Measured values from patent publication US20140066365A1, “USE OF CALIXARENES ASSOCIATED WITH AN ANTIBIOTIC IN THE TREATMENT OF BACTERIAL INFECTIONS” (priority 2011, published 2014).
Converted amounts (≈) assume the structure as drawn. Where two headings read alike, the source gives them in different places.

Tests used:
[1] = system: PaR5: Pseudomonas aeruginosa; assay: Antibiogram by the disk diffusion technique; assay type: cell-based; conditions: for diameter in mm: disk diffusion inhibition diameter, strain PaR5
Description: (§1) The bacterial and antibiogramidentification is carried out by the VITEK 2 system (bioMérieux) and by the disk diffusion technique

[2] = system: EcR3: ESBL-Producing Escherichia coli; assay: Antibiogram by the disk diffusion technique; assay type: cell-based; conditions: for Diameter: Table C1; for diameter in mm: Table C2
Description: The bacterial and antibiogramidentification is carried out by the VITEK 2 system (bioMerieux) and by the disk diffusion technique

[3] = system: EcR1: Penicillinase-Producing Escherichia coli without Associated Resistance; assay: Antibiogram by the disk diffusion technique; assay type: cell-based; conditions: for Diameter: EcR1, disk diffusion
Description: (§2) 5.1 EcR1: Penicillinase-Producing Escherichia coli without Associated Resistance The bacterial and antibiogramidentification is carried out by the VITEK 2 system (bioMérieux) and by the disk diffusion technique.

[4] = system: Pseudomonas aeruginosa strain PaR2; assay: microbe, parasite or virus in culture; assay type: cell-based; conditions: Pseudomonas aeruginosa, antibiotic alone (second value of cell), read-out: MIC
Source text: (§3) The MICs of the antibiotics were previously defined for each strain, by the method of microdilution in a liquid medium (CLSI (Clinical and Laboratory Standards Institute), 2003).

[5] = system: Pseudomonas aeruginosa strain ATCC 27853 (wild type); assay: MIC of the compounds used alone, microdilution in a liquid medium (CLSI); assay type: cell-based; conditions: Pseudomonas aeruginosa, ATCC27853; antibiotic alone (second value of cell); P. aeruginosa ATCC 27853; read-out: MIC
Source text: as §3

[6] = system: penicillinase-producing strain of Escherichia coli without associated resistance (EcR1); assay: as above; assay type: cell-based; conditions: Escherichia coli, antibiotic alone (second value of cell), read-out: Initial MICs
Source text: as §3

[7] = system: Escherichia coli strain ATCC 25922 (wild type); assay: as above; assay type: cell-based; conditions: Escherichia coli, ATCC25922; antibiotic alone (second value of cell); E. coli ATCC 25922; read-out: Initial MICs
Source text: as §3

[8] = system: Staphylococcus aureus strain ATCC 29213 (wild type); assay: as above; assay type: cell-based; conditions: Staphylococcus aureus, ATCC29213; antibiotic alone (second value of cell); S. aureus ATCC 29213; read-out: Initial MICs
Source text: as §3

[9] = system: Pseudomonas aeruginosa strain PaR3; assay: as above; assay type: cell-based; conditions: Pseudomonas aeruginosa, antibiotic alone (second value of cell), read-out: MIC
Source text: as §3

[10] = system: ESBL-producing strain of Escherichia coli, having an associated resistance to the aminoglycosides (EcR3); assay: as above; assay type: cell-based; conditions: Escherichia coli, antibiotic alone (second value of cell), read-out: Initial MICs
Source text: as §3

[11] = system: mucoid strain of Pseudomonas aeruginosa PaR5; assay: as above; assay type: cell-based; conditions: Pseudomonas aeruginosa, antibiotic alone (second value of cell), read-out: MIC
Source text: as §3

[12] = system: cephalosporinase-hyperproducing strain of Escherichia coli (EcR2); assay: as above; assay type: cell-based; conditions: Escherichia coli, antibiotic alone (second value of cell), read-out: Initial MICs
Source text: as §3

[13] = system: PaR3: Pseudomonas aeruginosa; assay: Antibiogram, MIC by the VITEK 2 system; assay type: cell-based
Description: (§4) The bacterial and antibiogramidentification is carried out by the VITEK 2 system (bioMérieux)

[14] = system: EcR1: Penicillinase-Producing Escherichia coli without Associated Resistance; assay: Antibiogram, MIC by the VITEK 2 system; assay type: cell-based; conditions: for MIC: Escherichia coli
Description: as §2

[15] = system: PaR2: Pseudomonas aeruginosa; assay type: cell-based; conditions: for Diameter: Table G1; for diameter in mm: Table G2
Description: as §1

[16] = system: SaR3: Meticillin-Resistant Staphylococcus aureus; assay: Antibiogram by the disk diffusion technique; assay type: cell-based
Description: as §1

[17] = system: SaR1: Meticillin-Resistant Staphylococcus aureus without Associated Resistance; assay: Antibiogram, inhibition diameter (Table D1); assay type: cell-based
Description: as §4

[18] = system: SaR4: Meticillin-Resistant Staphylococcus aureus; assay: Antibiogram, MIC by the VITEK 2 system; assay type: cell-based; conditions: Staphylococcus aureus, SaR4, read-out: MIC
Description: as §1

[19] = system: SaR1: Meticillin-Resistant Staphylococcus aureus without Associated Resistance; assay: Antibiogram, MIC by the VITEK 2 system; assay type: cell-based; conditions: SaR1
Description: as §4

[20] = system: EcR2: Cephalosporinase-Hyperproducing Strain of Escherichia coli; assay: Antibiogram, MIC by the VITEK 1 system; assay type: cell-based; conditions: Escherichia coli, read-out: MIC
Description: The bacterial and antibiogramidentification is carried out by the VITEK 1 system (bioMérieux) and by the disk diffusion technique

[21] = system: MRSA strain without associated resistance (SaR1); assay: MIC of the compounds used alone, microdilution in a liquid medium (CLSI); assay type: cell-based, Staphylococcus aureus; conditions: Staphylococcus aureus, MRSA; antibiotic alone (second value of cell); SaR1; read-out: MIC
Source text: as §3

[22] = as above; assay type: cell-based, Staphylococcus aureus; conditions: Staphylococcus aureus, MRSA; antibiotic alone (second value of cell); SaR4; read-out: MIC
Source text: as §3

[23] = system: MRSA strain having a resistance to the aminoglycosides and fluoroquinolones (SaR3); assay: as above; assay type: cell-based, Staphylococcus aureus; conditions: Staphylococcus aureus, MRSA; antibiotic alone (second value of cell); SaR3; read-out: MIC
Source text: as §3

[24] = Pseudomonas aeruginosa, Table H2, read-out: MIC
[25] = EcR1, Table A2, read-out: MIC mg/L (diameter in mm)
[26] = EcR1, VITEK 2, Table A1, read-out: MIC

NCC[C@H](O)C(=O)N[C@@H]1C[C@H](N)[C@@H](O[C@H]2O[C@H](CN)[C@@H](O)[C@H](O)[C@H]2O)[C@H](O)[C@H]1O[C@H]1O[C@H](CO)[C@@H](O)[C@H](N)[C@H]1O [Amikacin]
Diameter ([1]; PaR5, Table I1): 27 mm | Results ([1]; PaR5, Table I1, against Dmin-Dmax): Susceptible | diameter in mm [1]: 27 mm | CA-SFM Interpretation ([1]; disk diffusion, PaR5, versus critical diameter CA-SFM 2011): Susceptible | CLSI Interpretation ([1]; disk diffusion, PaR5, versus critical diameter CLSI 2011): Susceptible | EUCAST Interpretation ([1]; disk diffusion, PaR5, versus critical diameter EUCAST 2011, for ** antibiotics the disk load differs and the EUCAST interpretation is not applicable): Susceptible | CA-SFM Interpretation ([2]; Cd CA-SFM 2011): Susceptible | CLSI Interpretation ([2]; Cd CLSI 2011): Susceptible | EUCAST Interpretation ([2]; Cd EUCAST 2011): Susceptible | Diameter [2]: 17 mm | Results ([2]; Table C1, against Dmin Dmax): Susceptible | diameter in mm [2]: 17 mm | Diameter ([3]; Table A1): 19 mm | Results ([3]; EcR1, interpretation of the diameter against Dmin Dmax, Table A1): Susceptible | MIC [4]: 1 µg/mL (≈ 1.71 µM) | MIC [5]: 0.5 µg/mL | MIC [6]: 0.25 µg/mL | MIC [7]: 0.25 µg/mL | MIC [8]: 1 µg/mL | MIC [9]: 1 µg/mL | MIC [10]: 1 µg/mL | MIC [11]: 0.5 µg/mL | MIC [12]: 0.5 µg/mL | CA-SFM Interpretation ([13]; Cc CA-SFM 2011): Susceptible | CLSI Interpretation ([13]; Cc CLSI 2011): Susceptible | EUCAST Interpretation ([13]; Cc EUCAST 2011): Susceptible | MIC [13, 24]: 4 µg/mL (≈ 6.83 µM) | MIC ([13]; Table H1): 4 µg/mL (≈ 6.83 µM) | Results ([13]; Table H1): Susceptible | CA-SFM Interpretation ([14]; EcR1, MIC against Cc CA-SFM 2011): Susceptible | CLSI Interpretation ([14]; EcR1, MIC against Cc CLSI 2011): Susceptible | EUCAST Interpretation ([14]; EcR1, MIC against Cc EUCAST 2011): Susceptible | Results ([14]; EcR1, interpretation of the MIC, Table A1): Susceptible | MIC [14, 25]: ≤ 2 mg/L | MIC [14, 26]: ≤ 2 mg/L | CA-SFM Interpretation ([15]; Cd CA-SFM 2011): Susceptible | CLSI Interpretation ([15]; Cd CLSI 2011): Susceptible | EUCAST Interpretation ([15]; Cd EUCAST 2011): Susceptible | Diameter [15]: 22 mm | Results ([15]; Table G1, against Dmin-Dmax): Susceptible | diameter in mm [15]: 22 mm

CO[C@H]1/C=C/O[C@@]2(C)Oc3c(C)c(O)c4c(O)c(c(/C=N/N5CCN(C)CC5)c(O)c4c3C2=O)NC(=O)/C(C)=C\C=C\[C@H](C)[C@H](O)[C@@H](C)[C@@H](O)[C@@H](C)[C@H](OC(C)=O)[C@@H]1C [Rifampicin]
Diameter ([1]; PaR5, Table I1): 13 mm | diameter in mm [1]: 13 mm | Diameter ([16]; Table E1): 31 mm | diameter in mm ([16]; Table E2): 31 mm | Diameter [17]: 30 mm | Diameter [2]: 15 mm | diameter in mm [2]: 15 mm | MIC mg/L (diameter in mm) ([3]; EcR1, cells that print a diameter, Table A2): 16 mm | Diameter ([3]; Table A1): 16 mm | MIC ([18]; Table F1): ≤ 1 µg/mL | MIC ([18]; Table F2, MIC): ≤ 1 µg/mL | MIC [4]: 64 µg/mL (≈ 77.8 µM) | MIC [5]: 64 µg/mL | MIC [6]: 4 µg/mL | MIC [7]: 4 µg/mL | MIC [9]: 32 µg/mL | MIC [10]: 4 µg/mL | MIC [11]: 16 µg/mL | MIC [12]: 2 µg/mL | MIC mg/L ([19]; Table D2): ≦0.5 mg/L | MIC ([19]; Staphylococcus aureus, Table D1, read-out: MIC): ≤ 0.5 µg/mL | Diameter [15]: 25 mm | diameter in mm [15]: 25 mm

C[C@@H](O)[C@H]1C(=O)N2C(C(=O)O)=C(SCCN=CN)C[C@H]12 [Imipenem]
MIC ([20]; EcR2, VITEK 1, Table B1): ≤ 4 µg/mL | MIC ([20]; EcR2, Table B2, MIC): ≤ 0.5 µg/mL | Diameter ([1]; PaR5, Table I1): 25 mm | diameter in mm [1]: 25 mm | Diameter [2]: 27 mm | diameter in mm [2]: 27 mm | MIC [4]: 2 µg/mL (≈ 6.68 µM) | MIC [5]: 2 µg/mL | MIC [6]: 0.125 µg/mL | MIC [7]: 0.125 µg/mL | MIC [8]: 0.015 µg/mL | MIC [9]: 32 µg/mL | MIC [10]: 0.125 µg/mL | MIC [11]: 2 µg/mL | MIC [12]: 0.125 µg/mL | MIC [13, 24]: ≥ 16 µg/mL | MIC ([13]; Table H1): ≧16 | MIC [21]: 0.25 µg/mL | MIC [22]: 2 µg/mL | MIC [23]: 0.25 µg/mL | MIC [14, 25]: ≤ 0.5 mg/L | MIC [14, 26]: ≤ 1 mg/L | Diameter [15]: 27 mm | diameter in mm [15]: 27 mm
